Holding throughout (assay): In vitro activity: M.I.C. on nutrient agar plates, surface inoculation, 24 h at 37°C
Common to all, as to type: cell-based

Experiment [1] deals with Staphylococcus aureus. Conditions: S. aureus, Peptid or Antibiotikum alone; for MIC: Staphylococcus aureus, 24 h. The text has this:
(§1) Es wurden konzentrierte Lösungen von Gemischen der Verbindungen der Formel I und dem Antibiotikum in den gewünschten Gewichtsverhältnissen hergestellt, die dann beliebig verdünnt wurden. Aliquote Teile der verdünnten Lösungen wurden mit einem geeigneten Nähragar in Petrischalen gemischt. Zum Vergleich wurden ähnliche Agar-Schalen hergestellt, die ausser dem Nährmedium die Verbindung I bzw. das Antibiotikum alleine enthielten. Nach Oberflächeninokulation mit den Mikroorganismen wurde 24 Stunden bei 37°C aufbewahrt und dann die minimale Hemmkonzentration (M.I.C.) bestimmt und die F.I.C.-Indexe berechnet. Die Ergebnisse unter Verwendung repräsentativer Verbindungen der Formel I, nämlich (1R)-1-(N-Sarcosyl-L-norvalyl-L-norvalylamino)-ethylphosphonsäure, und (1R)-1-(N-Methyl-L-leucyl-L-norvalyl-L-norvalylamino)-ethylphosphonsäure und repräsentativer Antibiotika, nämlich Cephalexin und D-Cycloserin, sind in den folgenden Tabellen I-III zusammengestellt..

Experiment [2] relates to Streptococcus pyogenes. The note with it: S. pyogenes, Peptid or Antibiotikum alone.
Excerpt: as §1

In experiment [3] the test system is Streptococcus faecalis. The note with it: S. faecalis, Peptid or Antibiotikum alone.
Excerpt: as §1

Experiment [4] deals with Streptococcus dysgalactiae. The note with it: S.dysgalactiae, Peptid or Antibiotikum alone.
Excerpt: as §1

The subject of experiment [5] is Proteus mirabilis. The note with it: P. mirabilis, Peptid or Antibiotikum alone.
Excerpt: as §1

Experiment [6] deals with Escherichia coli. The note with it: E. coli, Peptid or Antibiotikum alone.
Excerpt: as §1

In experiment [7] the test system is Streptococcus agalactiae. Conditions: S.agalactiae, Peptid or Antibiotikum alone.
Excerpt: as §1

The text below walks through data of patent publication EP0026409A1, “Combinations of active ingredients, pharmaceutical preparations, as well as their preparation” (F. HOFFMANN-LA ROCHE & CO. Aktiengesellschaft, priority 1979, dated 1981).

Converted amounts (≈) assume the structure as drawn. Read-outs that look alike come from different tables or passages of the source.

`CCC[C@H](NC(=O)[C@H](CC(C)C)NC)C(=O)N[C@@H](CCC)C(=O)N[C@@H](C)P(=O)(O)O` [(1R)-1-(N-Methyl-L-leucyl-L-norvalyl-L-norvalylamino)-ethylphosphonsäure]: the M.I.C. in experiment [1] is more than 64 µg/mL; in experiment [2], more than 64 µg/mL; in experiment [3], 2 µg/mL.
In the case of `CCC[C@H](NC(=O)CNC)C(=O)N[C@@H](CCC)C(=O)N[C@@H](C)P(=O)(O)O` [(1R)-1-(N-Sarcosyl-L-norvalyl-L-norvalylamino)-ethylphosphonsäure], the M.I.C. in experiment [4] was 2.8 µg/mL; in experiment [1], more than 128 µg/mL; in experiment [5], more than 128 µg/mL; in experiment [2], 90.5 µg/mL; in experiment [6], 2 µg/mL; in experiment [7] it was 45.2 µg/mL. In experiment [3], this compound yielded a M.I.C. of 90.5 µg/mL.
`CC1=C(C(=O)O)N2C(=O)[C@@H](NC(=O)[C@H](N)c3ccccc3)[C@H]2SC1` [Cephalexin]: the results for the M.I.C. in experiment [1] and in experiment [2] were 64 µg/mL and 8 µg/mL, respectively. The MIC turned out to be 45.2 µg/mL (≈ 130 µM) in experiment [1]; 22.6 µg/mL (≈ 65.1 µM) in experiment [5] (Proteus mirabilis, 24 h); 11.3 µg/mL (≈ 32.5 µM) in experiment [2] (Streptococcus pyogenes, 24 h); 128 µg/mL (≈ 368 µM) in experiment [3] (Enterococcus faecalis, 24 h).
On to `N[C@@H]1CONC1=O` [D-Cycloserin], for which the MIC in experiment [4] (Streptococcus dysgalactiae, 24 h) turned out to be 128 µg/mL (≈ 1250 µM); in experiment [1] (read-out: M.I.C.) it was 16 µg/mL (≈ 157 µM); in experiment [6] (Escherichia coli, 24 h), 32 µg/mL (≈ 313 µM); in experiment [7] (Streptococcus agalactiae, 24 h) it was 90.5 µg/mL (≈ 886 µM).
